#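 1) Cells in 96-well plates. 2) Compound, 48 h, 5 concentrations. 3) Linear interpolation between surrounding doses. 4) Unreached endpoint = highest concentration. TGI: concentration producing complete growth inhibition.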
# Columns and labels:
# Assay in all cases: growth of human tumour cells (NCI), 48 h
# [1] = tested on: A498 renal
# [2] = tested on: HOP-92 NSCLC
# [3] = tested on: HS 578T breast
# [4] = tested on: OVCAR-4 ovarian
# [5] = tested on: OVCAR-5 ovarian
# [6] = tested on: PC-3 prostate
# [7] = tested on: T-47D breast
# [8] = tested on: U251 CNS
# [9] = tested on: UACC-62 melanoma
# [10] = tested on: NCI-H460 lung
Structure (SMILES),TGI [1] [µM],TGI [2] [µM],TGI [3] [µM],TGI [4] [µM],TGI [5] [µM],TGI [6] [µM],TGI [7] [µM],TGI [8] [µM],TGI [9] [µM],TGI [10] [µM]
OCc1c2c(cc3c1CC1(C3)Cc3cc4c(c(CO)c3C1)CCC4)CCC2,30.3,33.1,36.9,23.5,34.6,39.9,31,29.4,32.6,–
COC(=O)c1c(O)ccc2c1c1c(n2Cc2ccc(OC)cc2)C(=O)c2ccccc2C1=O,47.2,25.3,58.1,35.2,51.7,21.1,46.1,23.4,–,33.3
C=C(C)[C@@H]1CC[C@]2(CO)CC[C@]3(C)[C@H](CC[C@@H]4[C@@]5(C)CC[C@H](O)C(C)(C)[C@@H]5CC[C@]43C)[C@@H]12,61.9,41,–,–,> 100,84.3,> 100,24.1,–,> 100
CN(C)NC1=NS(=O)(=O)c2cc3c(cc2S1)N(N(C)C)C(=O)c1cc2c(cc1N(N(C)C)C3=O)SC(NN(C)C)=NS2(=O)=O,> 10,> 10,> 10,> 10,> 10,> 10,> 10,> 10,–,> 10
CC1(C)C2CCC1(C)C(N/C(=C(/C(Cl)=C(Cl)Cl)[N+](=O)[O-])n1nnc3ccccc31)C2 (centres undefined),37.5,–,43.6,60.7,> 100,48.3,> 100,43.3,46,> 100
COc1ccc(C[C@H]2NC(=O)/C=C/C[C@@H]([C@H](C)[C@H]3O[C@@H]3c3ccccc3)OC(=O)[C@H](CC(C)C)OC(=O)[C@H](C)CNC2=O)cc1,8.37e-05,–,> 6.66e-05,> 0.0001,> 0.0001,> 0.0001,> 0.0001,> 0.0001,3.38e-05,> 0.0001
COc1cc2c(cc1OC)C1=Cc3ccc(OC)c(OC)c3C(C#N)N1CC2 (centres undefined),> 100,–,> 100,> 100,> 100,> 100,40.4,> 100,45.5,> 100
CC(C)=NNc1cnnc2ccc([N+](=O)[O-])cc12,–,> 100,> 100,–,> 100,> 100,> 100,> 100,–,> 100
O=C1OC(C2Cc3ccccc3C2=O)c2ccccc21 (centres undefined),–,> 100,> 100,> 100,> 100,> 100,> 100,> 100,> 100,> 100
O=C(Nc1ccccc1)c1cc(S(=O)(=O)Nc2n[nH]c(=O)[nH]2)c(SSc2cc(Cl)c(C(=O)Nc3ccccc3)cc2S(=O)(=O)Nc2n[nH]c(=O)[nH]2)cc1Cl,> 100,> 100,> 100,> 100,> 100,> 100,–,> 100,–,> 100
Cc1ccccc1C(=O)C#Cc1cn(C2CC(O)C(CO)O2)c(=O)[nH]c1=O (centres undefined),–,> 100,> 100,> 100,–,> 100,> 100,> 100,> 100,> 100
CSc1nc2c(c(=O)n1C)N=C(c1ccc(Cl)cc1)CC(c1ccccc1)N2 (centres undefined),> 100,> 100,–,23.7,> 100,> 100,–,> 100,34.7,–
O=C1c2cc([N+](=O)[O-])cnc2S(=O)(=O)N1c1ccc(Br)cc1,–,> 100,> 100,> 100,> 100,> 100,> 100,> 100,> 100,> 100
CC1(C)CC(=O)C2=C(C1)NC(SCC(=O)O)=C(C#N)C2c1ccc(Br)cc1 (centres undefined),> 100,> 100,> 100,> 100,> 100,> 100,–,> 100,> 100,> 100
Nc1ccccc1/C=C\c1ccccc1,–,> 100,> 100,–,> 100,> 100,> 100,> 100,> 100,> 100
CC(=O)c1cc2c(s1)C(=O)c1scc(C(C)=O)c1C2=O,4,0.93,–,0.454,4.14,1.53,0.838,0.628,0.692,1.27
COC(=O)c1c(C)ccc2c(O)c3c(cc12)C(=O)c1c2c(cc(O)c1C3=O)C1(C)OC(C)(O2)C(O)C(N(C)C)C1O (centres undefined),7.46,> 100,–,8.81,7.19,4.89,–,1.6,8.64,–
O=c1[nH]c(=S)c2cc3c(=S)[nH]c(=O)n(CCC(c4ccccc4)(c4ccccc4)c4ccccc4)c3nc2n1CCC(c1ccccc1)(c1ccccc1)c1ccccc1,> 100,> 100,–,> 100,> 100,> 100,> 100,> 100,> 100,> 100
N#CC(c1nc2ccccc2s1)c1nc(Cl)ncc1Br (centres undefined),> 100,52,–,> 100,> 100,–,> 100,> 100,–,> 100
O=C1C=C(N2CCCC2)C(=O)c2c(O)ccc(O)c21,> 10,> 10,> 10,–,> 10,> 10,> 10,> 1,> 10,> 10
CC(=O)N1CC(C)(C)c2c1cc(C)c(O)c2C,> 100,–,> 100,> 100,> 100,> 100,> 100,> 100,> 100,> 100
CCOC(=O)c1[nH]cnc1/N=N/N(C)N,> 100,–,> 100,> 100,> 100,> 100,> 100,> 100,> 100,> 100
c1nncn1C12C3C4C5C3C1C5C42 (centres undefined),> 100,–,> 100,–,> 100,> 100,> 100,> 100,–,> 100
CC(C)=CC(C)C(C(O)CCC1(c2ccoc2)OCCO1)S(=O)(=O)c1ccccc1 (centres undefined),> 100,–,–,> 100,> 100,> 100,> 100,> 100,–,> 100
